Results reported in patent publication US11357850B2, “Methods for treating breast cancer using INOS-inhibitory compositions” (The Methodist Hospital, priority 2014, dated 2022).

Columns and labels:
[1] = system: MDA-MB-231; experiment: Cell migration, wound healing assay; format: cell-based, human; details: 96 hrs treatment, wound healing 12 hrs
Method: (§1) FIG. 18A and FIG. 18B show the migration of MDA-MB-231 and SUM159 cells was assessed by “wound healing” assay. Briefly, 3×10^5 cells were plated in a 6-well plate until confluence in growth medium. […] A “wound” was then created in the cell monolayer. Images were taken at 0 and 12 hrs. Wound-healing capacity was determined with the software Image J. Data were replicated in three independent experiments. Results were normalized to vehicle;
(§2) Cell migration capacity. Cell migration was determined with a “wound healing assay.” Briefly, 3×10^5 cells/well were grown in 6-well plates until confluence. […] To avoid an impact on cell proliferation, low serum medium was changed by regular growth medium in presence of inhibitors for 24 hrs (96 hrs total). A “wound” was then created in the cell monolayer with a 100-4, pipette tip. Images were taken at 0 hrs, and cells were allowed to heal the wound for 12 hrs. Wound-healing capacity was determined with the software Image J. Data were replicated in three independent experiments.

[2] = system: SUM159; experiment: Cell migration, wound healing assay; format: cell-based, human; details: 96 hrs treatment, wound healing 12 hrs
Method: as §1, §2

[3] = system: MCF10A; experiment: Western blot of PERK/eIF2α/ATF4/ATF3 axis with recombinant TGFβ1; format: cell-based; details: 1400 W 4 mM co-treatment with recombinant TGFβ1 for 24 hrs
Excerpt: FIG. 3A, FIG. 3B, FIG. 3C, FIG. 3D, FIG. 3E, FIG. 3F, FIG. 3G, FIG. 311, FIG. 3I, and FIG. 3J show iNOS knockdown impairs tumorigenicity and EMT by a dual impact on HIF1α and endoplasmic reticulum (ER) stress/TGFβ/AFT4/ATF3 crosstalk. Proliferation (FIG. 3A), migration (FIG. 3B), and self-renewal capacity (primary and secondary mammospheres) (FIG. 3C) in MDA-MB-231 cells transfected with two different NOS2-directed shRNAs (shRNA1, shRNA2) compared with empty vector (shRNA-EV). […] Selective iNOS inhibition reduced hypoxia (HIF1α), ER stress markers (IRE1α, ATF4) (FIG. 3F), phospho-Smad2/3, Smad2/3 and mature TGFβ protein levels in MDA-MB-231 and SUM159 cells (FIG. 3G). FIG. 3H: Recombinant TGFβ1 (10 ng/mL for 24 hrs) activates the PERK/eIF2α/ATF4/ATF3 axis in MCF10A. […] FIG. 3J: Selective iNOS inhibition is postulated to impair EMT and tumor cell migration by an impact on HIF1α, ER stress (IRE1α/XBP1) and the crosstalk between ATF4, ATF3 and TGFβ. Results were normalized to empty vector. Data are presented as mean±SEM. ****p<0.0001, ***p<0.001, **p<0.01. One-way ANOVA and Bonferroni's post-hoc test;
Western Blot. Cells were cultured at a density of 2.5×10^5 cells/well in 6-well plates with or without iNOS inhibitors for 96 hrs. Cells were resuspended in 1× lysis buffer (Cell Signaling Technology, Inc.) and 1× protease/phosphatase inhibitor cocktail (Thermo Scientific). […]

[4] = system: HRT-18 cells; details: daily treatment with 500 μM; cited from earlier work
[5] = system: MDA-MB-231; experiment: Western blot / RT-PCR of EMT, hypoxia, ER stress and TGFβ markers; format: cell-based, human
Method: (§3) Protein levels of iNOS and EMT-inducing factors were determined by Western blot with antibodies against: iNOS (N-20) and Twist1 (L-21) (Santa Cruz Biotechnology), Snail (C15D3), Slug (C19G7) and TCF8/Zeb1 (D80D3) (Cell Signaling) (1:1000 dilution). β-actin (Cell Signaling; 1:2000) was used as loading control;
(§4) Western Blot. […] Cells were resuspended in 1× lysis buffer (Cell Signaling Technology, Inc.) and 1× protease/phosphatase inhibitor cocktail (Thermo Scientific). Samples (30 μg protein) were boiled in 4×LDS sample buffer (Thermo Scientific) containing […] (Sigma-Aldrich) and subjected to SDS-PAGE electrophoresis in 4-20% polyacrylamide gels (Bio-Rad, Hercules, Calif., USA). Proteins were transferred onto nitrocellulose membranes (Bio-Rad) and non-specific binding was avoided incubating with 5% non-fat dry milk in 1×Tris-buffered saline (TBS) for 1 hr. Membranes were incubated overnight at 4° C. with primary antibodies (1:1,000 dilution; anti-β-Actin, 1:2,000 dilution). After washing and incubation with the appropriate secondary antibodies for 1 hr (1:2,000 dilution), membranes were washed and incubated with enhanced chemiluminescence substrate. Protein bands were developed in autoradiography films (Denville Scientific, Inc., Holliston, Mass., USA).
RT-PCR Analysis of Spliced XBP1. […] The PCR amplification (50 ng cDNA) was done with […] Taq DNA polymerase (native, 5 U/μL), 0.2 mM dNTP, 1.5 mM MgCl2 (50 mM) and 0.5 μM of each primer.

[6] = system: adenoid cystic carcinoma of the oral cavity; details: mouse, in vivo; cited from earlier work
[7] = system: SUM159; experiment: Western blot of EMT, hypoxia, ER stress and TGFβ markers; format: cell-based, human
Method: as §3, §4

[8] = millimolar and micromolar concentrations, 96 hrs

With CC(=N)NCc1cccc(CN)c1 [1400 W, N-[[3-(aminomethyl)phenyl]methyl]-ethanimidamide] the migration ([1]; micromolar range) was “marked dose-dependent decrease in migration”, the migration ([1]; millimolar range) was “marked dose-dependent decrease in migration” and the migration ([2]; micromolar range) was “marked dose-dependent decrease in migration”. For the same compound, the migration ([2]; millimolar range) was “marked dose-dependent decrease in migration”, the “stimulation of ATF4 and ATF3 protein levels by TGFβ1” value [3] was “inhibit the stimulation of ATF4 and ATF3 protein levels” and the invasiveness [4] was “substantially decreased”. The “ER stress markers IRE1α/splicedXBP1 and ATF4” value ([5]; 96 hrs) was “dose-dependent decrease”, the “hypoxia (HIF1α)” value ([5]; 96 hrs) was “dose-dependent decrease” and the “TGFβ signaling (phospho-Smad2/3, Smad2/3 and mature TGFβ)” value ([5]; absence and presence of recombinant TGFβ1 (10 ng/mL for 72 hrs)) was “inhibit TGFβ signaling”. For the same compound, the “protein levels of the EMT transcription factors Snail, Slug, and Twist1” value [5, 8] was “reduction in protein levels”, the Zeb1 protein levels ([5]; millimolar concentrations) was “decreased” and the spontaneous lung metastasis [6] was “markedly inhibit spontaneous lung metastasis”. The “hypoxia (HIF1α)” value ([7]; 96 hrs) was “dose-dependent decrease”, the “TGFβ signaling (phospho-Smad2/3, Smad2/3 and mature TGFβ)” value ([7]; absence of recombinant TGFβ1) was “inhibit TGFβ signaling” and the “protein levels of the EMT transcription factors Snail, Slug, and Twist1” value [7, 8] was “reduction in protein levels”. The Zeb1 protein levels ([7]; millimolar concentrations) was “decreased” and the “ER stress markers IRE1α and ATF4” value ([7]; splicedXBP1 was not detected in SUM159 cells) was “dose-dependent decrease”.
